This is an account of results in publication PMC11578424, “Discovery of novel 2,4-diarylaminopyrimidine hydrazone derivatives as potent anti-thyroid cancer agents capable of inhibiting FAK” (Journal of Enzyme Inhibition and Medicinal Chemistry, 2024).

Read-outs that look alike come from different tables or passages of the source.

The test system of data set [1] is thyroid cancer cells TPC-1. Briefly: MTT antiproliferative assay. The class given is cell-based. The conditions noted are these: MTT assay, 48 h, average with SD (n = 3, duplicate), read-out: IC50 (μM), antiproliferative activity against thyroid cancer cells TPC-1. As to the method:
Thyroid cancer cells TCP-1 were provided by Wuhan Servicebio Co., Ltd. TCP-1 cells are cultured in RPMI-1640 medium supplemented with 10% foetal bovine serum (FBS), 100 U/mL penicillin, and 0.1 mg/mL streptomycin. All cells are maintained in a humidified incubator at 37 °C with 5% CO2.
The TCP-1 cell line is seeded into a 96-well plate and incubated under conditions of 37 °C and 5% CO2. After the cells adhere, different concentrations of compounds are added and the incubation continues for 48 h under the same conditions. Subsequently, MTT reagent is added to the medium and the incubation is continued for an additional 4 h at 37 °C. After the incubation, the medium is aspirated, and 150 μL of DMSO solution is added to dissolve the purple-blue crystals by shaking. The absorbance of the solution is measured at a wavelength of 490 nm. The IC50 value of the compounds is calculated using SPSS software version 20.0.

For `CNC(=O)c1ccccc1Nc1nc(N/N=C/c2ccccc2)ncc1Cl` [14a, (E)-2-((2–(2-benzylidenehydrazineyl)-5-chloropyrimidin-4-yl)amino)-N-methylbenzamide], the melting point was in the range of 199.1 to 202.1 °C. Moreover, the IC50 in data set [1] (Homo sapiens, TPC1, 48 h) was 0.306 µM. Besides, in data set [1], the IC50 was found to be 0.246 ± 0.038 µM.
For `CNC(=O)c1ccccc1Nc1nc(N/N=C/c2ccc(F)cc2F)ncc1Cl` [14r, (E)-2-((5-chloro-2–(2-(2,4-difluorobenzylidene)hydrazineyl)pyrimidin-4-yl)amino)-N-methylbenzamide], the melting point lay within 243.2 to 245.1 °C. Besides, the 50% inhibitory concentration (IC50) in data set [1] (Homo sapiens, TPC1, 48 h) amounted to 0.122 ± 0.032 µM.
The molecule `CNC(=O)c1ccccc1Nc1nc(N/N=C/c2cccc(C(F)(F)F)c2)ncc1Cl` [14 m, (E)-2-((5-chloro-2–(2-(3-(trifluoromethyl)benzylidene)hydrazineyl)pyrimidin-4-yl)amino)-N-methylbenzamide] yielded a melting point of 207.1 to 209.8 °C. In data set [1] (Homo sapiens, TPC1, 48 h), the IC50 came out at 0.693 ± 0.017 µM.
In the same order, the values of `CNC(=O)c1ccccc1Nc1nc(N/N=C/c2ccc(Cl)cc2)ncc1Cl` [14 g, (E)-2-((5-chloro-2–(2-(4-chlorobenzylidene)hydrazineyl)pyrimidin-4-yl)amino)-N-methylbenzamide] are 194.1 to 195.8 °C and 0.409 ± 0.093 µM.
In the same order, the values of `CNC(=O)c1ccccc1Nc1nc(N/N=C/c2ccc(C)cc2)ncc1Cl` [14b, (E)-2-((5-chloro-2–(2-(4-methylbenzylidene)hydrazineyl)pyrimidin-4-yl)amino)-N-methylbenzamide] are 207.1 to 208.1 °C and 0.296 ± 0.021 µM.
For `CNC(=O)c1ccccc1Nc1nc(N/N=C/c2ccccn2)ncc1Cl` [14s, (E)-2-((5-chloro-2–(2-(pyridin-2-ylmethylene)hydrazineyl)pyrimidin-4-yl)amino)-N-methylbenzamide] the same measures were 217.1 to 218.2 °C and 0.272 ± 0.016 µM.
On to `CNC(=O)c1ccccc1Nc1nc(N/N=C/c2cccnc2)ncc1Cl` [14t, (E)-2-((5-chloro-2–(2-(pyridin-3-ylmethylene)hydrazineyl)pyrimidin-4-yl)amino)-N-methylbenzamide], for which the melting point lay in the range of 217.1 to 218.1 °C. Further, the IC50 in data set [1] (Homo sapiens, TPC1, 48 h) amounted to 0.243 ± 0.001 µM.
Consider `CNC(=O)c1ccccc1Nc1nc(N/N=C/c2cn(C)c3ccccc23)ncc1Cl` [14 y], for which the melting point was 217.2 to 219.1 °C. For the same molecule, the IC50 in data set [1] (Homo sapiens, TPC1, 48 h) amounted to 0.425 ± 0.023 µM.
`CNC(=O)c1ccccc1Nc1nc(N/N=C/c2ccncc2)ncc1Cl` [14 u, (E)-2-((5-chloro-2–(2-(pyridin-4-ylmethylene)hydrazineyl)pyrimidin-4-yl)amino)-N-methylbenzamide] yielded a melting point of 215.1 to 216.8 °C. For the same molecule, in data set [1] (Homo sapiens, TPC1, 48 h), the IC50 came out at 0.189 ± 0.005 µM.
For `CNC(=O)c1ccccc1Nc1nc(N/N=C(\C)c2ccc(OC)cc2)ncc1Cl` [14ac, (E)-2-((5-chloro-2–(2-(1–(4-methoxyphenyl)ethylidene)hydrazineyl)pyrimidin-4-yl)amino)-N-methylbenzamide] the same measures were 216.7 to 217.1 °C and 0.612 ± 0.016 µM.
For `CNC(=O)c1ccccc1Nc1nc(N/N=C(\C)c2ccc(F)cc2)ncc1Cl` [14ad, (E)-2-((5-chloro-2–(2-(1–(4-fluorophenyl)ethylidene)hydrazineyl)pyrimidin-4-yl)amino)-N-methylbenzamide] the same measures were 222.6 to 223.8 °C and 1.46 ± 0.066 µM.
For `CNC(=O)c1ccccc1Nc1nc(N/N=C/c2ccc3[nH]ccc3c2)ncc1Cl` [14aa, (E)-2-((2–(2-((1H-indol-5-yl)methylene)hydrazineyl)-5-chloropyrimidin-4-yl)amino)-N-methylbenzamide] the same measures were 218.1 to 219.9 °C and 0.331 ± 0.012 µM.
Consider `CNC(=O)c1ccccc1Nc1nc(N/N=C/c2ccc([N+](=O)[O-])cc2)ncc1Cl` [14i, (E)-2-((5-chloro-2–(2-(4-nitrobenzylidene)hydrazineyl)pyrimidin-4-yl)amino)-N-methylbenzamide], for which the melting point is 201.7 to 202.8 °C. Also, the half-maximal inhibitory concentration (IC50) in data set [1] (Homo sapiens, TPC1, 48 h) is 0.157 ± 0.008 µM.
For `CNC(=O)c1ccccc1Nc1nc(N/N=C/c2ccc3cccnc3c2)ncc1Cl` [14w, (E)-2-((5-chloro-2–(2-(quinolin-7-ylmethylene)hydrazineyl)pyrimidin-4-yl)amino)-N-methylbenzamide] the same measures were 241.7 to 242.1 °C and 0.413 ± 0.015 µM.
In turn, `CNC(=O)c1ccccc1Nc1nc(N/N=C/c2c[nH]c3ccccc23)ncc1Cl` [14x, (E)-2-((2–(2-((1H-indol-3-yl)methylene)hydrazineyl)-5-chloropyrimidin-4-yl)amino)-N-methylbenzamide] displayed a melting point of 203.3 to 204.8 °C. The IC50 in data set [1] (Homo sapiens, TPC1, 48 h) stood at 0.357 ± 0.01 µM.
Regarding `CNC(=O)c1ccccc1Nc1nc(N/N=C/c2cccc(F)c2)ncc1Cl` [14 l, (E)-2-((5-chloro-2–(2-(3-fluorobenzylidene)hydrazineyl)pyrimidin-4-yl)amino)-N-methylbenzamide], the melting point was in the range of 203.3 to 205.1 °C. The IC50 in data set [1] (Homo sapiens, TPC1, 48 h) was 0.428 ± 0.009 µM.
In the same order, the values of `CNC(=O)c1ccccc1Nc1nc(N/N=C/c2ccc(C#N)cc2)ncc1Cl` [14j, (E)-2-((5-chloro-2–(2-(4-cyanobenzylidene)hydrazineyl)pyrimidin-4-yl)amino)-N-methylbenzamide] are 200.7 to 202.1 °C and 0.126 ± 0.011 µM.
For `CNC(=O)c1ccccc1Nc1nc(N/N=C/c2ccc(OC)cc2)ncc1Cl` [14c, (E)-2-((5-chloro-2–(2-(4-methoxybenzylidene)hydrazineyl)pyrimidin-4-yl)amino)-N-methylbenzamide], the melting point lay in the range of 187.7 to 188.9 °C. Further, in data set [1] (Homo sapiens, TPC1, 48 h), the IC50 turned out to be 0.257 ± 0.004 µM.
For `CNC(=O)c1ccccc1Nc1nc(N/N=C/c2ccc(O)cc2)ncc1Cl` [14d, (E)-2-((5-chloro-2–(2-(4-hydroxybenzylidene)hydrazineyl)pyrimidin-4-yl)amino)-N-methylbenzamide] the same measures were 187.8 to 189.2 °C and 0.255 ± 0.025 µM.
For `CNC(=O)c1ccccc1Nc1nc(N/N=C/c2cccs2)ncc1Cl` [14v, (E)-2-((5-chloro-2–(2-(thiophen-2-ylmethylene)hydrazineyl)pyrimidin-4-yl)amino)-N-methylbenzamide] the same measures were 214.6 to 216.1 °C and 0.153 ± 0.005 µM.
As for `CNC(=O)c1ccccc1Nc1nc(Nc2ccc(N3CCOCC3)cc2OC)ncc1Cl` [TAE-226, reference compound], the IC50 in data set [1] (Homo sapiens, TPC1, 48 h) is 1.08 ± 0.023 µM.
With `CNC(=O)c1ccccc1Nc1nc(N/N=C/c2ccc(OC)cc2OC)ncc1Cl` [14n, (E)-2-((5-chloro-2–(2-(2,4-dimethoxybenzylidene)hydrazineyl)pyrimidin-4-yl)amino)-N-methylbenzamide], the melting point fell in the range of 213.1 to 214.7 °C.
In turn, `CNC(=O)c1ccccc1Nc1nc(N/N=C/c2ccc3cc[nH]c3c2)ncc1Cl` [14ab, (E)-2-((2–(2-((1H-indol-6-yl)methylene)hydrazineyl)-5-chloropyrimidin-4-yl)amino)-N-methylbenzamide] came in with a melting point of 216.1 to 217.7 °C. Besides, in data set [1] (Homo sapiens, TPC1, 48 h), the IC50 came out at 0.364 ± 0.015 µM.
In the same order, the values of `CNC(=O)c1ccccc1Nc1nc(N/N=C/c2ccc(OC)cc2F)ncc1Cl` [14p, (E)-2-((5-chloro-2–(2-(2-fluoro-4-methoxybenzylidene)hydrazineyl)pyrimidin-4-yl)amino)-N-methylbenzamide] are 218.1 to 219.4 °C and 0.228 ± 0.065 µM.
In the same order, the values of `CNC(=O)c1ccccc1Nc1nc(N/N=C/c2ccc(OC)c(F)c2)ncc1Cl` [14q, (E)-2-((5-chloro-2–(2-(3-fluoro-4-methoxybenzylidene)hydrazineyl)pyrimidin-4-yl)amino)-N-methylbenzamide] are 234.1 to 235.7 °C and 0.386 ± 0.047 µM.
In the case of `CNC(=O)c1ccccc1Nc1nc(N/N=C/c2ccc(C(F)(F)F)cc2)ncc1Cl` [14e, (E)-2-((5-chloro-2–(2-(4-(trifluoromethyl)benzylidene)hydrazineyl)pyrimidin-4-yl)amino)-N-methylbenzamide], the melting point lay in the range of 206.6 to 208.8 °C. Besides, the half-maximal inhibitory concentration (IC50) in data set [1] (Homo sapiens, TPC1, 48 h) is 0.193 ± 0.029 µM.
In the same order, the values of `CNC(=O)c1ccccc1Nc1nc(N/N=C/c2ccc(Br)cc2)ncc1Cl` [14h, (E)-2-((2–(2-(4-bromobenzylidene)hydrazineyl)-5-chloropyrimidin-4-yl)amino)-N-methylbenzamide] are 192.1 to 193.2 °C and 0.59 ± 0.024 µM.
In the same order, the values of `CNC(=O)c1ccccc1Nc1nc(N/N=C/c2ccc(OC)c(OC)c2)ncc1Cl` [14o, (E)-2-((5-chloro-2–(2-(3,4-dimethoxybenzylidene)hydrazineyl)pyrimidin-4-yl)amino)-N-methylbenzamide] are 214.1 to 215.2 °C and 0.434 ± 0.012 µM.
In the same order, the values of `CNC(=O)c1ccccc1Nc1nc(N/N=C/c2cccc(OC)c2)ncc1Cl` [14k, (E)-2-((5-chloro-2–(2-(3-methoxybenzylidene)hydrazineyl)pyrimidin-4-yl)amino)-N-methylbenzamide] are 199.3 to 200.4 °C and 0.517 ± 0.031 µM.
`CNC(=O)c1ccccc1Nc1nc(N/N=C/c2c[nH]c3ccc(OC)cc23)ncc1Cl` [14z, (E)-2-((5-chloro-2–(2-((5-methoxy-1H-indol-3-yl)methylene) hydrazineyl)pyrimidin-4-yl)amino)-N-methylbenzamide]: the melting point was in the range of 217.1 to 218.2 °C. In addition, the concentration for half-maximal inhibition (IC50) in data set [1] (Homo sapiens, TPC1, 48 h) was 0.624 ± 0.044 µM.
